Laboratory results taken from patent publication US12221425B2, “Process for the preparation of CIC-1 chloride channel inhibitors” (NMD PHARMA A/S, priority 2019, dated 2025).

Target: T1, human CIC-1 channels (Homo sapiens, UniProt P35523)
T1 construct: host or cells: CHO (Chinese hamster ovary) cells constitutively expressing human ClC-1
Assay: Automated whole cell patch clamp (Qpatch 16) on CHO cells expressing human CIC-1, compound added intracellularly
Format: cell-based
Conditions: compound in intracellular solution vs vehicle control patches, positive shift reflects CIC-1 inhibition
Experimental: The investigatory goal of these experiments was to evaluate how compounds affect the open probability and current amplitude of human CIC-1 channels expressed in CHO cells. Experiments were performed using an automated patch clamp system that allowed high throughput testing of whole cell patches together with both intracellular and extracellular addition of compound.
Automated whole cell patch clamp experiments were performed with the Qpatch 16 system (Sophion Bioscience, Ballerup, Denmark) at room temperature. Data acquisition and analysis were performed in the Qassay software (ver. 5.6, Odense).
To evoke CIC-1 currents in whole cell patches, the membrane potential was initially stepped from a holding potential of −30 mV to +60 mV for 100 ms and then to various test voltages (sweeps) ranging from +120 mV to −140 mV in steps of 20 mV for 300 ms. To obtain tail currents, the membrane potential was stepped to −100 mV after each test voltage for 300 ms and then relaxed to −30 mV for 2 sec between sweeps (FIG. 1). I/V relationships for whole cell instant and steady state current amplitudes were obtained by plotting average current densities at the beginning and at the end of the 300 ms step against the membrane potential (FIG. 2).
In order to determine the relative overall open probability (P0), the instantaneous tail currents were normalized to the maximal tail current obtained following the most positive voltage step and plotted against the test voltage. Plots of normalized tail currents from each whole cell patch were then fitted to a Boltzmann function allowing determination of half activation voltages (V1/2, FIG. 3).
For automated patch clamp experiments extracellular solutions contained: 2 mM CaCl2, 1 mM MgCl2, 10 mM HEPES, 4 mM KCl, 145 mM NaCl, 10 mM Glucose, pH adjusted to 7.4 with NaOH (2 M). Osmolality adjusted to ˜320 using sucrose.
Intracellular solutions contained: 80 mM CsF, 60 mM CsCl, 5/1 mM KOH/EGTA, 10 mM HEPES, 10 mM NaCl, pH adjusted to 7.2 with NaOH (2 M). Osmolality adjusted to ˜320 mOsm using sucrose.
Cells used in patch clamp experiments were Chinese hamster ovary cells (CHO) constitutively expressing human CIC-1 channels. The amino acid sequence encoded by the cDNA used to create this cell line was identical to the translated sequence for GenBank accession number NM_000083.2. Cells were produced by Charles River (Catalogue CT6175, Cleveland OH, USA) in a cryopreserved format. Experiments were performed on the cells directly after thawing (3×10^6 cells used in each experiment).
To evaluate the compound effect on CIC-1, when applied directly to the intracellular side of the cell membrane, the half activation voltage, V1/2, was determined from whole cell patches with compound added to the intracellular solution and then compared to V1/2 determined from control cell patches with only vehicle added to the intracellular solution. Additionally, the effect of extracellular added compound was evaluated by determine V1/2 and steady state current amplitudes before and after exchanging the extracellular solution to contain compound.
The difference in half activation voltage of CIC-1 channels, ΔV1/2, was determined as the difference between the cell patches treated intracellularly with compound and control cells patches and is reported in Table 1 below. A positive shift in ΔV1/2 is reflecting CIC-1 channel inhibition by the tested compound. P-values of <0.05 is considered significant.

T1 sequence (P35523 whole entry): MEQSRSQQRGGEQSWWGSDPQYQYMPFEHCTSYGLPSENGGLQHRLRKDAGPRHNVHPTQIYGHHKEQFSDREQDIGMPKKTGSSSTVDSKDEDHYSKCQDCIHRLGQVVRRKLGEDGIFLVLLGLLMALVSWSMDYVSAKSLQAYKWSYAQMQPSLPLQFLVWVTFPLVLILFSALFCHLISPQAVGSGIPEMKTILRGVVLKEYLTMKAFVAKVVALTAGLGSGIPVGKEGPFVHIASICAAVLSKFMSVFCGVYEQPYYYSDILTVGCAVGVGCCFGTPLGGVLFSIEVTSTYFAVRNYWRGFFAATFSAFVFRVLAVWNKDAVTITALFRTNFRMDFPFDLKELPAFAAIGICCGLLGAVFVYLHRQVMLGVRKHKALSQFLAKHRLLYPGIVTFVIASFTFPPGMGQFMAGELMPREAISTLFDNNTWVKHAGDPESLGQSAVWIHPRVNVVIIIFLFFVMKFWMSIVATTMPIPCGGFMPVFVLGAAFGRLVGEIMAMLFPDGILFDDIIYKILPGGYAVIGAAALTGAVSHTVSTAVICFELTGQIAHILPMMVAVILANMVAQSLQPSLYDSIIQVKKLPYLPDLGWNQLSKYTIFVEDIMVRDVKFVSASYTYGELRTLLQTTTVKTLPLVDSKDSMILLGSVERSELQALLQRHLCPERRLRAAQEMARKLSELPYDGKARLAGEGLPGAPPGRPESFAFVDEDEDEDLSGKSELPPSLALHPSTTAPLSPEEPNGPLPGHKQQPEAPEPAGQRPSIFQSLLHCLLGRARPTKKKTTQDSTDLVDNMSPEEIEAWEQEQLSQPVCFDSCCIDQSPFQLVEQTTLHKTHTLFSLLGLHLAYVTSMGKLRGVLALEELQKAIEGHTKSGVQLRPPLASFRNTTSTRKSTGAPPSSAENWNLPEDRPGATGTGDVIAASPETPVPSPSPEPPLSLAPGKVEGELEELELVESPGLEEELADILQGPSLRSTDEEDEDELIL

Shift in half activation voltage, ΔV1/2 | Compound
11.3 mV | O=C(O)COc1ccc(Br)cc1-c1ccon1 [2-[4-bromo-2-(1,2-oxazol-3-yl)phenoxy]acetic acid]
14.1 mV | C[C@H](Oc1ccc(Br)cc1-c1ccon1)C(=O)O [(2S)-2-(4-bromo-2-(isoxazol-3-yl)phenoxy)propanoic acid]
7.2 mV | CC[C@H](Oc1ccc(Br)cc1-c1ccon1)C(=O)O [(2S)-2-[4-bromo-2-(1,2-oxazol-3-yl)phenoxy]butanoic acid]
17.7 mV | C[C@H](Oc1cc(F)c(Br)cc1-c1ccon1)C(=O)O [(2S)-2-[4-bromo-5-fluoro-2-(1,2-oxazol-3-yl)phenoxy]propanoic acid]
8.1 mV | C[C@H](Oc1ccc(Cl)cc1-c1ccon1)C(=O)O [(2S)-2-[4-chloro-2-(1,2-oxazol-3-yl)phenoxy]propanoic acid]
